Values of other authors, collected in article PMC12264960, “siRNA Interaction and Transfection Properties of Polycationic Phosphorus Dendrimers” (Biomacromolecules, 2025).

Tests used:
[1] = tested on: translation in the eukaryotic system; design: method as in earlier work; details: ref [4]
[2] = tested on: translation in the prokaryotic system; design: method as in earlier work; details: ref [4]

## NC1C(OCOC2C(N)[C@H](O[C@H]3C(N)C[C@H](N)C(O)C3O)OC(CO)[C@@H]2O)[C@H](O)C(CO)O[C@@H]1O[C@@H]1C(N)C[C@@H](N)C(O)C1O (some centres unmarked) [NB33]
[1]
  fold better inhibitor of translation compared to apramycin: 10 fold
[2]
  times weaker inhibitor of translation compared to apramycin: 22 times
